# Measurements from PubChem BioAssay AID1259407 (Chemical Carcinogenesis Research Information System (CCRIS), 2018).
# Active and inactive are the calls of the source. No rule for the calls is given here.
# System: CCRIS mutagenicity, Ames/micronucleus/aberration tests
# Assay: CCRIS mutagenicity studies
smiles,measurement,setting,value
Nc1ccc(-c2ccc(N)cc2)cc1,mutagenic call,"End Point: IN VITRO CHROMOSOMAL ABERRATIONS, Test System: CHINESE HAMSTER OVARY CELLS, Metabolic Activation: NONE",inactive; negative
same,mutagenic call,"End Point: IN VITRO CHROMOSOMAL ABERRATIONS, Test System: CHINESE HAMSTER OVARY CELLS, Metabolic Activation: RAT, LIVER, S-9, AROCLOR 1254",active; positive
same,mutagenic call,"Test System: AMES SALMONELLA TYPHIMURIUM, Strain/Indicator: DJ400, Metabolic Activation: HUMAN, HEPATOMA CELLS, BENZO[A]ANTHRACENE, Method: PREINCUBATION",active; positive
same,mutagenic call,"Test System: AMES SALMONELLA TYPHIMURIUM, Strain/Indicator: DJ400, Metabolic Activation: HUMAN, HEPATOMA CELLS, Method: PREINCUBATION",active; positive
same,mutagenic call,"Test System: AMES SALMONELLA TYPHIMURIUM, Strain/Indicator: DJ400, Metabolic Activation: RAT, LIVER, S-9, AROCLOR 1254, Method: PREINCUBATION",active; positive
same,mutagenic call,"Test System: AMES SALMONELLA TYPHIMURIUM, Strain/Indicator: DJ400, Metabolic Activation: RAT, LIVER, S-9, Method: PREINCUBATION",active; positive
same,mutagenic call,"Test System: AMES SALMONELLA TYPHIMURIUM, Strain/Indicator: DJ400, Metabolic Activation: TOBACCO TX1 CELLS, Method: PREINCUBATION",inactive; negative
same,mutagenic call,"Test System: AMES SALMONELLA TYPHIMURIUM, Strain/Indicator: DJ460, Metabolic Activation: HUMAN, HEPATOMA CELLS, BENZO[A]ANTHRACENE, Method: PREINCUBATION",active; positive
same,mutagenic call,"Test System: AMES SALMONELLA TYPHIMURIUM, Strain/Indicator: DJ460, Metabolic Activation: HUMAN, HEPATOMA CELLS, Method: PREINCUBATION",active; positive
same,mutagenic call,"Test System: AMES SALMONELLA TYPHIMURIUM, Strain/Indicator: DJ460, Metabolic Activation: RAT, LIVER, S-9, AROCLOR 1254, Method: PREINCUBATION",active; positive
same,mutagenic call,"Test System: AMES SALMONELLA TYPHIMURIUM, Strain/Indicator: DJ460, Metabolic Activation: RAT, LIVER, S-9, Method: PREINCUBATION",active; positive
same,mutagenic call,"Test System: AMES SALMONELLA TYPHIMURIUM, Strain/Indicator: DJ460, Metabolic Activation: TOBACCO CELL-FREE EXTRACT, Method: PREINCUBATION",active; positive
same,mutagenic call,"Test System: AMES SALMONELLA TYPHIMURIUM, Strain/Indicator: DJ460, Metabolic Activation: TOBACCO TX1 CELLS, Method: PREINCUBATION",active; positive
same,mutagenic call,"Test System: AMES SALMONELLA TYPHIMURIUM, Strain/Indicator: MP110, Metabolic Activation: TOBACCO TX1 CELLS, Method: PREINCUBATION",inactive; negative
same,mutagenic call,"Test System: AMES SALMONELLA TYPHIMURIUM, Strain/Indicator: MP120, Metabolic Activation: TOBACCO TX1 CELLS, Method: PREINCUBATION",inactive; negative
same,mutagenic call,"Test System: AMES SALMONELLA TYPHIMURIUM, Strain/Indicator: MP208, Metabolic Activation: TOBACCO CELL-FREE TXIMX, Method: PREINCUBATION",active; positive
same,mutagenic call,"Test System: AMES SALMONELLA TYPHIMURIUM, Strain/Indicator: MP219, Metabolic Activation: TOBACCO CELL-FREE TXIMX, Method: PREINCUBATION",active; positive
same,mutagenic call,"Test System: AMES SALMONELLA TYPHIMURIUM, Strain/Indicator: SV50, Metabolic Activation: HAMSTER, LIVER, S-9, Method: STANDARD PLATE",inactive; negative
same,mutagenic call,"Test System: AMES SALMONELLA TYPHIMURIUM, Strain/Indicator: SV50, Metabolic Activation: NONE, Method: PREINCUBATION (PRIVAL METHOD)",active; positive
same,mutagenic call,"Test System: AMES SALMONELLA TYPHIMURIUM, Strain/Indicator: SV50, Metabolic Activation: RAT, LIVER, S-9, AROCLOR 1254, Method: STANDARD PLATE",inactive; negative
same,mutagenic call,"Test System: AMES SALMONELLA TYPHIMURIUM, Strain/Indicator: TA98(1,8-DNP6), Metabolic Activation: NONE, Method: PREINCUBATION",inactive; negative
same,mutagenic call,"Test System: AMES SALMONELLA TYPHIMURIUM, Strain/Indicator: TA98(1,8-DNP6), Metabolic Activation: NONE, Method: STANDARD PLATE",inactive; negative
same,mutagenic call,"Test System: AMES SALMONELLA TYPHIMURIUM, Strain/Indicator: TA98(1,8-DNP6), Metabolic Activation: PLANT CELLS, Method: PREINCUBATION",active; positive
same,mutagenic call,"Test System: AMES SALMONELLA TYPHIMURIUM, Strain/Indicator: TA98(1,8-DNP6), Metabolic Activation: S-9, Method: STANDARD PLATE",inactive; negative
same,mutagenic call,"Test System: AMES SALMONELLA TYPHIMURIUM, Strain/Indicator: TA98(1,8-DNP6), Metabolic Activation: TOBACCO CELL-FREE TXIMX, Method: PREINCUBATION",inactive; negative
same,mutagenic call,"Test System: AMES SALMONELLA TYPHIMURIUM, Strain/Indicator: TA98(NR), Metabolic Activation: TOBACCO CELL-FREE TXIMX, Method: PREINCUBATION",active; positive
same,mutagenic call,"Test System: AMES SALMONELLA TYPHIMURIUM, Strain/Indicator: TA98, Metabolic Activation: HAMSTER, LIVER, S-9, Method: PREINCUBATION",active; positive
same,mutagenic call,"Test System: AMES SALMONELLA TYPHIMURIUM, Strain/Indicator: TA98, Metabolic Activation: HAMSTER, LIVER, S-9, Method: PREINCUBATION (PRIVAL METHOD)",active; positive
same,mutagenic call,"Test System: AMES SALMONELLA TYPHIMURIUM, Strain/Indicator: TA98, Metabolic Activation: HAMSTER, LIVER, S-9, Method: STANDARD PLATE",active; positive
same,mutagenic call,"Test System: AMES SALMONELLA TYPHIMURIUM, Strain/Indicator: TA98, Metabolic Activation: HUMAN, HEPATOMA CELLS, BENZO[A]ANTHRACENE, Method: PREINCUBATION",active; positive
same,mutagenic call,"Test System: AMES SALMONELLA TYPHIMURIUM, Strain/Indicator: TA98, Metabolic Activation: HUMAN, HEPATOMA CELLS, Method: PREINCUBATION",active; positive
same,mutagenic call,"Test System: AMES SALMONELLA TYPHIMURIUM, Strain/Indicator: TA98, Metabolic Activation: MOUSE, LIVER, S-9, Method: STANDARD PLATE",active; positive
same,mutagenic call,"Test System: AMES SALMONELLA TYPHIMURIUM, Strain/Indicator: TA98, Metabolic Activation: NONE, Method: PREINCUBATION",inactive; negative
same,mutagenic call,"Test System: AMES SALMONELLA TYPHIMURIUM, Strain/Indicator: TA98, Metabolic Activation: NONE, Method: STANDARD PLATE",inactive; negative
same,mutagenic call,"Test System: AMES SALMONELLA TYPHIMURIUM, Strain/Indicator: TA98, Metabolic Activation: PLANT CELLS, Method: PREINCUBATION",active; positive
same,mutagenic call,"Test System: AMES SALMONELLA TYPHIMURIUM, Strain/Indicator: TA98, Metabolic Activation: RAT LIVER S-9, AROCLOR 1254, Method: PREINCUBATION",active; positive
same,mutagenic call,"Test System: AMES SALMONELLA TYPHIMURIUM, Strain/Indicator: TA98, Metabolic Activation: RAT, BLADDER, S-9, PCB, Method: FLUCTUATION TEST",inactive; negative
same,mutagenic call,"Test System: AMES SALMONELLA TYPHIMURIUM, Strain/Indicator: TA98, Metabolic Activation: RAT, LIVER, S-9, AROCLOR 1254, Method: PREINCUBATION",active; positive
same,mutagenic call,"Test System: AMES SALMONELLA TYPHIMURIUM, Strain/Indicator: TA98, Metabolic Activation: RAT, LIVER, S-9, AROCLOR 1254, Method: STANDARD PLATE",active; positive
same,mutagenic call,"Test System: AMES SALMONELLA TYPHIMURIUM, Strain/Indicator: TA98, Metabolic Activation: RAT, LIVER, S-9, PHENOBARBITAL, Method: STANDARD PLATE",active; positive
same,mutagenic call,"Test System: AMES SALMONELLA TYPHIMURIUM, Strain/Indicator: TA98, Metabolic Activation: RAT, LIVER, S-9, Method: PREINCUBATION",active; positive
same,mutagenic call,"Test System: AMES SALMONELLA TYPHIMURIUM, Strain/Indicator: TA98, Metabolic Activation: S-9, Method: STANDARD PLATE",active; positive
same,mutagenic call,"Test System: AMES SALMONELLA TYPHIMURIUM, Strain/Indicator: TA98, Metabolic Activation: TOBACCO CELL-FREE TXIMX, Method: PREINCUBATION",active; positive
same,mutagenic call,"Test System: AMES SALMONELLA TYPHIMURIUM, Strain/Indicator: TA100(NR), Metabolic Activation: TOBACCO CELL-FREE TXIMX, Method: PREINCUBATION",inactive; negative
same,mutagenic call,"Test System: AMES SALMONELLA TYPHIMURIUM, Strain/Indicator: TA100(TN:OAT), Metabolic Activation: TOBACCO CELL-FREE TXIMX, Method: PREINCUBATION",inactive; negative
same,mutagenic call,"Test System: AMES SALMONELLA TYPHIMURIUM, Strain/Indicator: TA100, Metabolic Activation: HUMAN, LIVER, S-9, Method: STANDARD PLATE",active; positive
same,mutagenic call,"Test System: AMES SALMONELLA TYPHIMURIUM, Strain/Indicator: TA100, Metabolic Activation: NONE, Method: PREINCUBATION",inactive; negative
same,mutagenic call,"Test System: AMES SALMONELLA TYPHIMURIUM, Strain/Indicator: TA100, Metabolic Activation: NONE, Method: STANDARD PLATE",inactive; negative
same,mutagenic call,"Test System: AMES SALMONELLA TYPHIMURIUM, Strain/Indicator: TA100, Metabolic Activation: RAT LIVER S-9, AROCLOR 1254, Method: PREINCUBATION",inactive; negative
